Patent publication US20080009523A1, “New Pyridine Analogues IV” (ASTRAZENECA AB, priority 2006, published 2008)

Molecular target: T1, P2Y12 receptor (Homo sapiens, UniProt Q9H244)
T1 construct: expressed in transfected cells; host or cells: CHO cells (membrane preparation)
Assay: Functional inhibition of 2-Me-S-ADP induced P2Y12 signalling (35S-GTPγS, membranes from P2Y12 transfected CHO-cells)
Assay type: biochemical
Details: EC80 concentration of agonist 2-methyl-thio-adenosine diphosphate, 30° C., 45 min
Procedure: Functional inhibition of the P2Y12 receptor can be measured by in vitro assays using cell membranes from P2Y12 transfected CHO-cells, the methodology is indicated below.
Functional inhibition of 2-Me-S-ADP induced P2Y12 signalling: 5 μg of membranes were diluted in 200 μl of 200 mM NaCl, 1 mM MgCl2, 50 mM HEPES (pH 7.4), 0.01% BSA, 30 μg/ml saponin and 10 μM GDP. To this was added an EC80 concentration of agonist (2-methyl-thio-adenosine diphosphate), the required concentration of test compound and 0.1 μCi ^35S-GTPγS. The reaction was allowed to proceed at 30° C. for 45 min. Samples were then transferred on to GF/B filters using a cell harvester and washed with wash buffer (50 mM Tris (pH 7.4), 5 mM MgCl2, 50 mM NaCl). Filters were then covered with scintilant and counted for the amount of ^35S-GTPγS retained by the filter. Maximum activity was that determined in the presence of the agonist and minimum activity in the absence of the agonist following subtraction of the value determined for non-specific activity. The effect of compounds at various concentrations was plotted according to the equation […]
y=A+((B−A)/(1+((C/x)̂D)))
A is the bottom plateau of the curve i.e. the final minimum y value
B is the top of the plateau of the curve i.e. the final maximum y value
C is the x value at the middle of the curve. This represents the log EC50 value when A+B=100 […]

T1 sequence (Q9H244 whole entry): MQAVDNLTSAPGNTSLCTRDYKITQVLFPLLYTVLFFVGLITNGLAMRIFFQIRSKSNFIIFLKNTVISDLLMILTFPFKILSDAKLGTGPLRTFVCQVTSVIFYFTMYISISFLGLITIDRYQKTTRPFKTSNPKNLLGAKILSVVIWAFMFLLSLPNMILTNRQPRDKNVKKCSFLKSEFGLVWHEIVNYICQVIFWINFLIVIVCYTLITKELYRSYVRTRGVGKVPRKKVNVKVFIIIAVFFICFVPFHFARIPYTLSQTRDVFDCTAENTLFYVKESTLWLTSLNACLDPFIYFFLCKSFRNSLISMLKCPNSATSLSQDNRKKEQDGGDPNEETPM

IC50 [nM] | SMILES
640 | CCOC(=O)c1cc(C#N)c(N2CCC(S(=O)(=O)NS(=O)(=O)Cc3ccccc3)CC2)nc1C [Example 2, ethyl 6-(4-{[(benzylsulfonyl)amino]sulfonyl}piperidin-1-yl)-5-cyano-2-methylnicotinate]
300 | CCOC(=O)c1cc(C#N)c(N2CCC(S(=O)(=O)NC(=O)Cc3ccc(F)cc3)CC2)nc1C [Example 4, Ethyl 5-cyano-6-[4-({[(4-fluorophenyl)acetyl]amino}sulfonyl)piperidin-1-yl]-2-methylnicotinate]
